Where a name gives a salt, the structure may show the parent alone.
Key:
[1] = system: colonic microbiota (fecal inoculum of two healthy adults); assay: 16S-targeted Illumina sequencing with flow cytometry, taxa abundance (second set); assay type: cell-based, human; settings: 24 h fermentation
Procedure: (§1) In a second set of in vitro experiments, at the start of the short-term colonic incubations, the test ingredients were added to nutritional medium containing basal nutrients present in the colon (e.g. host-derived glycans such as mucin). Three doses were tested per product. The nutritional medium used for this particular project was again supplemented with NaCl, MgSO4, CaCl2, hemin and bile salts, and with carbon sources glucose, starch and cellobiose. A blank, containing the same nutritional medium as that used for the product incubations, but without product addition, was included for each donor. In doing so, an assessment can be made of the background activity of the bacterial community, which results from fermentation of compounds in the nutritional medium. As a source of the colonic microbiota a fecal inoculum of two healthy adults was added. Incubations were performed for 48 h at 37′C, under shaking (90 rpm) and anaerobic conditions and protected from light. […] For the second set of in vitro experiments, two techniques were combined according to Vandeputte et al.

[2] = system: colonic microbiota (fecal inoculum of two healthy adults); assay: Microbiome diversity, alpha and beta (second set); assay type: cell-based, human
Procedure: as §1

SMILES	Akkermansiaceae relative abundance ([1]; 0.2× dose, donor D)	Faecalibacterium prausnitzii relative abundance ([1]; 0.2× dose, donor D)	Erysipelotrichaceae relative abundance ([1]; 1× dose, donor C)	Bifidobacteriaceae relative abundance ([1]; 1× dose, donor D)	Faecalibacterium prausnitzii relative abundance ([1]; 1× dose, donor D)	Bifidobacteriaceae relative abundance ([1]; 5× dose, donor D)	Faecalibacterium prausnitzii relative abundance ([1]; 5× dose, donor D)	alpha-diversity (Shannon diversity index) ([2]; 5× dose, donor D)	beta-diversity (Bray-Curtis distance to control) ([2]; 5× dose, donor D)	Erysipelotrichaceae relative abundance ([1]; 5× dose, donor C)	beta-diversity (Bray-Curtis distance to control) ([2]; 0.2× dose, donor D)	alpha-diversity (Shannon diversity index) ([2]; 1× dose, donor C)	other results
O=C(O)CCCC[C@@H]1SC[C@@H]2NC(=O)N[C@@H]21 [biotin, D-Biotin]	increase Akkermansiaceae relative abundance	increase Faecalibacterium prausnitzii relative abundance	increase Erysipelotrichaceae relative abundance	increase Bifidobacteriaceae relative abundance	increase Faecalibacterium prausnitzii relative abundance	increase Bifidobacteriaceae relative abundance	increase Faecalibacterium prausnitzii relative abundance	increases alpha-diversity	increases beta-diversity				Erysipelotrichaceae relative abundance ([1]; 0.2× dose, donor C): increase Erysipelotrichaceae relative abundance; Bifidobacteriaceae relative abundance ([1]; 0.2× dose, donor D): increase Bifidobacteriaceae relative abundance; Barnesiellaceae relative abundance ([1]; 1× dose, donor D): increase Barnesiellaceae relative abundance; alpha-diversity (Shannon diversity index) ([2]; 0.2× dose, both donors): increases alpha-diversity; beta-diversity (Bray-Curtis distance to control) ([2]; 1× dose, both donors): increases beta-diversity
NC(=O)c1cccnc1 [niacinamide, Niacinamide]			increase Erysipelotrichaceae relative abundance						increases beta-diversity	increase Erysipelotrichaceae relative abundance	increases beta-diversity	increases alpha-diversity	Akkermansiaceae relative abundance ([1]; 0.2× dose, donor C): increase Akkermansiaceae relative abundance
Cc1ncc(CO)c(CO)c1O.Cl [pyridoxine, Pyridoxine Hydrochloride]	increase Akkermansiaceae relative abundance	increase Faecalibacterium prausnitzii relative abundance	increase Erysipelotrichaceae relative abundance	increase Bifidobacteriaceae relative abundance	increase Faecalibacterium prausnitzii relative abundance	increase Bifidobacteriaceae relative abundance	increase Faecalibacterium prausnitzii relative abundance	increases alpha-diversity	increases beta-diversity		increases beta-diversity		Akkermansiaceae relative abundance ([1]; 1× dose, donor D): increase Akkermansiaceae relative abundance; Prevotellaceae relative abundance ([1]; 5× dose, donor C): increase Prevotellaceae relative abundance; Akkermansiaceae relative abundance ([1]; 5× dose, donor D): increase Akkermansiaceae relative abundance; Veillonellaceae relative abundance ([1]; 5× dose, donor D): increase Veillonellaceae relative abundance; beta-diversity (Bray-Curtis distance to control) ([2]; 1× dose, donor D): increases beta-diversity
Cc1ncc(C[n+]2csc(CCO)c2C)c(N)n1 [thiamine, Thiamine Hydrochloride]									increases beta-diversity	increase Erysipelotrichaceae relative abundance		increases alpha-diversity	Akkermansiaceae relative abundance ([1]; 1× dose, donor C): increase Akkermansiaceae relative abundance; alpha-diversity (Shannon diversity index) ([2]; 0.2× dose, donor C): increases alpha-diversity; beta-diversity (Bray-Curtis distance to control) ([2]; 1× dose, donor C): increases beta-diversity

From patent US12508280B2, “Formulations for improving gut health” (DSM IP ASSETS B.V., priority 2018, dated 2025)
